Experimental findings from patent US20260216347A1, “Substituted Imidazo-Based Compounds as Ligand Directed Degraders of IRAK3” (Celgene Corporation, priority 2022, published 2026) are described below.

In general, IC50 refers to the concentration at which inhibition is half-maximal. Low readings indicate inhibition by little substance, high ones a need for much substance.

The target in assay [1] is T1, IRAK3 (Homo sapiens, UniProt Q9Y616).
T1 construct: IRAK Endogenous HTRF Degradation Assay; endogenous in cells
T1 sequence (Q9Y616 1-596): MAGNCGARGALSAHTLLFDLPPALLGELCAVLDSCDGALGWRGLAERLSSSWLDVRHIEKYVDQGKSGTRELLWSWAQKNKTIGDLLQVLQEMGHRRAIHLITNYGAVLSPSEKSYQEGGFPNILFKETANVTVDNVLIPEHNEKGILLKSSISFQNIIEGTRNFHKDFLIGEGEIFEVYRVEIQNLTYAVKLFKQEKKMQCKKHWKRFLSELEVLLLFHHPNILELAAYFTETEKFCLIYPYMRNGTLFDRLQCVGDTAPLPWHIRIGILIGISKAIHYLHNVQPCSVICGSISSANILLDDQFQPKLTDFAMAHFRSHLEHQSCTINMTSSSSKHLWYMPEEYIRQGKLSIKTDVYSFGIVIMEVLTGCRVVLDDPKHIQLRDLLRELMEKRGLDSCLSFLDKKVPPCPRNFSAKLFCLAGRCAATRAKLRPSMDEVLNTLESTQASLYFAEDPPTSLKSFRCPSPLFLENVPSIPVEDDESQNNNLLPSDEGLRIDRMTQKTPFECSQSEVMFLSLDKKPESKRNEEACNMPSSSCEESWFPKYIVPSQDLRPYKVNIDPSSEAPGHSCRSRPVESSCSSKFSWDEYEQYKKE
Kind of assay: IRAK3 biochemical binding assay (LanthaScreen Eu Kinase Binding, TR-FRET). An outline of the steps: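 TR-FRET tracer-displacement binding with 10 nM IRAK3, 2 nM Eu-anti-GST antibody and 10 nM tracer in 50 mM HEPES pH 7.4, MgCl2, 1 mM EGTA, 0.01% Brij-35. Compounds in 3-fold dilutions, 1 h at room temperature. 665/615 nm ratio gave % inhibition; IC50 and Hill slope from dose-response fit.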
In general terms: Time-resolved FRET reads energy transfer from a long-lived donor to a nearby acceptor.

The target of assay [2] is T1, IRAK3. The assay is described as follows: IRAK endogenous HTRF degradation assay (Total-IRAK3 HTRF kit). The class given is cell-based. As to conditions: overnight incubation, lowest percentage of protein remaining. As for the experimental part:
Example B2. IRAK Endogenous HTRF Degradation Assay
Cells (~50 k) were plated in Cisbio 96-well low volume white plates (Cisbio: cat #66PL96005). Compounds were dissolved in DMSO and a 3-fold serial dilution was performed using a TECAN D300E. Cells were incubated with the compound overnight. Total-IRAK3 HTRF kit from Cisbio was used for degradation analysis (Cisbio: 63ADK101PEH). Cryptate and D2 antibodies were diluted in Detection buffer as per manufacturers recommendation. Then 2 μL of each solution was added to 16 μL lysate. Buffer control (lysis buffer detection buffer), Cryptate control (lysis buffer+cryptate antibody+detection buffer), and Negative control (lysis buffer+cryptate antibody+D2 antibody) were made as per manufacturers recommendation. Post incubation with antibodies the HTRF signal was measured using a Perkin Elmer Envision reader and the HTRF signal was calculated using formula: (Emission at 665 nm/Emission at 615 nm)*10,000. All HTRF values were normalized to the average value of DMSO. The average value of the DMSO control wells were set to equal 100% of the relative IRAK3 protein levels. Normalized luminescence values were plotted on a graph as a function of compound concentration. Compound concentration was plotted on the x-axis and the corresponding normalized IRAK3 protein levels on the y-axis. The EC50 value (the half-maximum effective concentration) of a compound for the degradation of the IRAK3 was calculated using a four-parameter logistic model (sigmoidal dose-response model) (FIT=(A+{(B−A)/1+[(C/x)D]})) where C is the inflection point (EC50), D is the […], and A and B are the low and high limits of the fit, respectively). The Ymin was calculated by determining the lowest percentage of target protein remaining following compound treatment. Dmax was calculated from Ymin (% Dmax=100−Ymin).
Using these assays, IC50, Dmax, EC50, and DC50 values of the following compounds were determined. Dmax is defined as the maximum percent degradation achieved and DC50 is the concentration at which 50% degradation is achieved.

A further assay has as its target T2, IRAK3-ePL (Homo sapiens, UniProt Q9Y616).
T2 construct: expressed in transfected cells; host or cells: 293T CRBN OE/GSPT1 G575N KI cells, lentiviral transduction, puromycin selected
Kind of assay: IRAK3-ePL overexpressing degradation assay (InCELL Hunter luminescence, dose response). The class given is cell-based. As to conditions: for IRAK3 ePL degradation Ymin: lowest percentage of target protein remaining following compound treatment; for DC50: read-out: IRAK3 ePL degradation EC50. The essentials: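 Lenti-X 293T CRBN/GSPT1 G575N cells stably expressing IRAK3-ePL (5,000/well) treated overnight at 37° C with 10-point 3-fold dilutions from 10 μM, 0.2% DMSO. InCELL Hunter luminescence, background subtracted using Ataluren wells and normalized to DMSO; EC50 from four-parameter logistic fit.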

`Cc1cc(-c2cnc(Nc3cnn([C@H]4CC[C@@H](CCN5CCN(c6ccc(C7CCC(=O)NC7=O)cc6)C[C@@H]5C)CC4)c3)c3nccn23)c(F)cc1F` (stereo partly drawn) [Compound 27, 3-(4-((S)-4-(2-((cis)-4-(4-((5-(2,4-difluoro-5-methylphenyl)imidazo[1,2-a]pyrazin-8-yl)amino)-1H-pyrazol-1-yl)cyclohexyl)ethyl)-3-methylpiperazin-1-yl)phenyl) piperidine-2,6-dione] yielded a 50% inhibitory concentration (IC50) at IRAK3 [1] of 7.6 nM. Further, the “IRAK3 HTRF degradation Ymin” value at IRAK3 [2] turned out to be 14%.
For `Cc1cc(-c2cnc(Nc3cnn(C4CCN(C(=O)CN5CCN(c6ccc7c(c6)C(=O)N(C6CCC(=O)NC6=O)C7=O)CC5)CC4)c3)c3nccn23)c(F)cc1F` (stereo not shown) [Compound 24, 5-(4-(2-(4-(4-((5-(2,4-difluoro-5-methylphenyl)imidazo[1,2-a]pyrazin-8-yl)amino)-1H-pyrazol-1-yl)piperidin-1-yl)-2-oxoethyl)piperazin-1-y1)-2-(2,6-dioxopiperidin-3-yl)isoindoline-1,3-dione], in that order: 4.6 nM and 25%.
Turning to `Cc1cc(-c2cnc(Nc3cnn(C4CCN(CCN5CCN(c6ccc(C7CCC(=O)NC7=O)cc6)[C@H](C)C5)CC4)c3)c3nccn23)c(F)cc1F` (stereo partly drawn) [Compound 50, 3-(4-((R)-4-(2-(4-(4-((5-(2,4-difluoro-5-methylphenyl)imdazo [1,2-a]pyrazin-8-yl)amino)-1H-pyrazol-1-yl)piperidin-1-yl)ethyl)-2-methylpiperazin-1-yl)phenyl) piperidine-2,6-dione], the “IRAK3 HTRF degradation Ymin” value at IRAK3 [2] was determined as 9.8%. At IRAK3-ePL, the “IRAK3 ePL degradation Ymin” value is 25% and the DC50 amounted to 1.3 nM.
For `Cc1cc(-c2cnc(Nc3cnn(C4CCN(CCN5[C@H](C)CN(c6ccc(C7CCC(=O)NC7=O)cc6)C[C@H]5C)CC4)c3)c3nccn23)c(F)cc1F` (stereo partly drawn) [Compound 58, 3-(4-((3R,5R)-4-(2-(4-(4-((5-(2,4-difluoro-5-methylphenyl)imdazo [1,2-a]pyrazin-8-yl)amino)-1H-pyrazol-1-yl)piperidin-1-yl)ethyl)-3,5-dimethylpiperazin-1-yl)phenyl) piperidine-2,6-dione], in that order: 9.7%, 25% and 0.98 nM.
`Cc1cc(-c2cnc(N(C)c3cnn(C4CCN(CCN5CCN(c6ccc(C7CCC(=O)NC7=O)cc6)CC5)CC4)c3)c3nccn23)c(F)cc1F` (stereo not shown) [Compound 52, 3-(4-(4-(2-(4-(4-((5-(2,4-difluoro-5-methylphenyl)imdazo [1,2-a]pyrazin-8-yl)(methyl)amino)-1H-pyrazol-1-yl)piperidin-1-yl)ethyl)piperazin-1-yl)phenyl) piperidine-2,6-dione]: at IRAK3 [2], the “IRAK3 HTRF degradation Ymin” value worked out at 74%. At IRAK3-ePL, the “IRAK3 ePL degradation Ymin” value stood at 40% and the DC50 was determined as 96 nM.
On to `Cc1cc(-c2cnc(Nc3cnn(C4CCN(CCN5CCN(c6ccc(C7CCC(=O)NC7=O)cc6)[C@@H](C)C5)CC4)c3)c3nccn23)c(F)cc1F` (stereo partly drawn) [Compound 44, 3-(4-((S)-4-(2-(4-(4-((5-(2,4-difluoro-5-methylphenyl)imdazo [1,2-a]pyrazin-8-yl)amino)-1H-pyrazol-1-yl)piperidin-1-yl)ethyl)-2-methylpiperazin-1-yl)phenyl) piperidine-2,6-dione], for which the “IRAK3 HTRF degradation Ymin” value on IRAK3 [2] stood at 8.1%. For the same compound, on IRAK3-ePL, the “IRAK3 ePL degradation Ymin” value is 26% and the DC50 stood at 0.97 nM.
For `Cc1cc(-c2cnc(Nc3cnn(C4CCN(CCN5CCN(c6ccc(C7CCC(=O)N(C)C7=O)cc6)CC5)CC4)c3)c3nccn23)c(F)cc1F` (stereo not shown) [Compound 55, 3-(4-(4-(2-(4-(4-((5-(2,4-difluoro-5-methylphenyl)imdazo [1,2-a]pyrazin-8-yl)amino)-1H-pyrazol-1-yl)piperidin-1-yl)ethyl)piperazin-1-yl)phenyl)-1-methylpiperidine-2,6-dione], in that order: 64%, 84% and 1100 nM.
The like results for `Cc1cc(-c2cnc(Nc3cnn([C@H]4CCN(CCN5CCN(c6ccc(C7CCC(=O)NC7=O)cc6)CC5)C[C@H]4F)c3)c3nccn23)c(F)cc1F` (stereo partly drawn) [Compound 63, 3-(4-(4-(2-((3R,4S)-4-(4-((5-(2,4-difluoro-5-methylphenyl)imdazo [1,2-a]pyrazin-8-yl)amino)-1H-pyrazol-1-yl)-3-fluoropiperidin-1-yl)ethyl)piperazin-1-yl)phenyl) piperidine-2,6-dione] were, in that order, 8.9%, 25% and 0.51 nM.
As to `Cc1cc(-c2cnc(Nc3cnn(C4CCN(CCN5[C@@H](C)CN(c6ccc(C7CCC(=O)NC7=O)cc6)C[C@@H]5C)CC4)c3)c3nccn23)c(F)cc1F` (stereo partly drawn) [Compound 56, 3-(4-((3S,5S)-4-(2-(4-(4-((5-(2,4-difluoro-5-methylphenyl)imdazo [1,2-a]pyrazin-8-yl)amino)-1H-pyrazol-1-yl)piperidin-1-yl)ethyl)-3,5-dimethylpiperazin-1-yl)phenyl) piperidine-2,6-dione], the “IRAK3 HTRF degradation Ymin” value at IRAK3 [2] came to 8.6%. At IRAK3-ePL, the “IRAK3 ePL degradation Ymin” value turned out to be 23% and the DC50 amounted to 0.75 nM.
For `Cc1cc(-c2cnc(Nc3cnn([C@@H]4CCN(CCN5CCN(c6ccc(C7CCC(=O)NC7=O)cc6)CC5)[C@H](C)C4)c3)c3nccn23)c(F)cc1F` (stereo partly drawn) [Compound 30, 3-(4-(4-(2-((2R,4R)-4-(4-((5-(2,4-difluoro-5-methylphenyl)imdazo [1,2-a]pyrazin-8-yl)amino)-1H-pyrazol-1-yl)-2-methylpiperidin-1-yl)ethyl)piperazin-1-yl)phenyl) piperidine-2,6-dione], in that order: 14%, 24% and 0.51 nM.
For `Cc1cc(-c2cnc(Nc3cnn(C4CCN(CCN5CCN(c6cccc7c(C8CCC(=O)NC8=O)nn(C)c67)CC5)CC4)c3)c3nccn23)c(F)cc1F` (stereo not shown) [Compound 41, 3-(7-(4-(2-(4-(4-((5-(2,4-difluoro-5-methylphenyl)imdazo [1,2-a]pyrazin-8-yl)amino)-1H-pyrazol-1-yl)piperidin-1-yl)ethyl)piperazin-1-yl)-1-methyl-1H-indazol-3-yl)piperidine-2,6-dione], in that order: 8.7%, 25% and 0.68 nM.
`C[C@H]1CN(c2ccc(C3CCC(=O)NC3=O)cc2)CCN1CCN1CCC(n2cc(Nc3ncc(C4CC4)n4ccnc34)cn2)CC1` (stereo partly drawn) [Compound 38, 3-(4-((S)-4-(2-(4-(4-((5-cyclopropylimidazo[1,2-a]pyrazin-8-yl)amino)-1H-pyrazol-1-yl)piperidin-1-yl)ethyl)-3-methylpiperazin-1-yl)phenyl) piperidine-2,6-dione]: the “IRAK3 HTRF degradation Ymin” value at IRAK3 [2] amounted to 9.1%. In addition, on IRAK3-ePL, the “IRAK3 ePL degradation Ymin” value is reported as 25% and the DC50 is 0.51 nM.
